Source: the supplement of paper PMC10307832

Key:
Assay in all cases: relative viability (nuclei count vs DMSO), 5 days (fraction); higher = more cells survive
AZD8055 + Vorinostat = compound: COc1ccc(-c2ccc3c(N4CCOC[C@@H]4C)nc(N4CCOC[C@@H]4C)nc3n2)cc1CO [AZD8055] + O=C(CCCCCCC(=O)Nc1ccccc1)NO [Vorinostat] (partner 1 µM)
Outline: (§1)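 The day after seeding in 1536-well plates, lung cancer cell lines were treated by pin tool with a single drug, or with a fixed anchor-drug dose together with five library-drug doses (not always all listed) in √10 steps. After 5 days, a combined fix-and-stain solution (final 0.05% Triton X-100, 1% formaldehyde, 1 ug/ml Hoechst) was added. Nuclei counted on 4× images gave relative viability as treated counts over vehicle counts, reported as the median of duplicate plates.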

AZD8055 + Foretinib = compound: COc1ccc(-c2ccc3c(N4CCOC[C@@H]4C)nc(N4CCOC[C@@H]4C)nc3n2)cc1CO [AZD8055] + COc1cc2c(Oc3ccc(NC(=O)C4(C(=O)Nc5ccc(F)cc5)CC4)cc3F)ccnc2cc1OCCCN1CCOCC1 [Foretinib] (partner 0.25 µM)
Outline: as §1

AZD8055 + Pictilisib = compound: COc1ccc(-c2ccc3c(N4CCOC[C@@H]4C)nc(N4CCOC[C@@H]4C)nc3n2)cc1CO [AZD8055] + CS(=O)(=O)N1CCN(Cc2cc3nc(-c4cccc5[nH]ncc45)nc(N4CCOCC4)c3s2)CC1 [Pictilisib] (partner 1 µM)
Outline: as §1

AZD8055 + AZD7762 = compound: COc1ccc(-c2ccc3c(N4CCOC[C@@H]4C)nc(N4CCOC[C@@H]4C)nc3n2)cc1CO [AZD8055] + NC(=O)Nc1cc(-c2cccc(F)c2)sc1C(=O)N[C@H]1CCCNC1 [AZD7762] (partner 0.2 µM)
Outline: as §1

Cell Line	relative viability (AZD8055 + Vorinostat; first compound 0.01 µM)	relative viability (AZD8055 + Vorinostat; first compound 0.03162 µM)	relative viability (AZD8055 + Vorinostat; first compound 0.1 µM)	relative viability (AZD8055 + Vorinostat; first compound 0.3162 µM)	relative viability (AZD8055 + Vorinostat; first compound 1 µM)	relative viability (AZD8055 + Foretinib; first compound 0.01 µM)	relative viability (AZD8055 + Foretinib; first compound 0.03162 µM)	relative viability (AZD8055 + Foretinib; first compound 0.1 µM)	relative viability (AZD8055 + Foretinib; first compound 0.3162 µM)	relative viability (AZD8055 + Foretinib; first compound 1 µM)	relative viability (AZD8055 + Pictilisib; first compound 0.01 µM)	relative viability (AZD8055 + Pictilisib; first compound 0.03162 µM)	relative viability (AZD8055 + Pictilisib; first compound 0.1 µM)	relative viability (AZD8055 + Pictilisib; first compound 0.3162 µM)	relative viability (AZD8055 + Pictilisib; first compound 1 µM)	relative viability (AZD8055 + AZD7762; first compound 0.01 µM)	relative viability (AZD8055 + AZD7762; first compound 0.03162 µM)	relative viability (AZD8055 + AZD7762; first compound 0.1 µM)	relative viability (AZD8055 + AZD7762; first compound 0.3162 µM)	relative viability (AZD8055 + AZD7762; first compound 1 µM)
NCI-H2228	0.918	0.541	0.416	0.271	0.242	0.739	0.54	0.385	0.166	0.241	0.244	0.273	0.159	0.263	0.287	–	–	–	–	–
NCI-H2087	0.679	1.03	0.734	0.152	0.223	1.04	0.857	0.676	0.461	0.315	1.06	0.704	0.574	0.446	0.328	1.37	1.36	1.33	0.654	0.478
LU99A	0.385	0.259	0.225	0.186	0.153	0.859	0.627	0.681	0.264	0.302	0.281	0.18	0.168	0.195	0.22	0.366	0.242	0.185	0.152	0.133
NCI-H1355	0.587	0.541	0.414	0.214	0.235	0.865	0.77	0.712	0.332	0.278	0.419	0.374	0.269	0.251	0.238	0.856	0.663	0.594	0.288	0.248
NCI-H520	0.621	0.406	0.242	0.188	0.154	0.635	0.344	0.35	0.173	0.172	0.301	0.19	0.202	0.163	0.159	–	–	–	–	–
NCI-H661	0.866	0.791	0.707	0.465	0.4	1.06	0.99	0.795	0.5	0.425	0.394	0.424	0.322	0.302	0.27	–	–	–	–	–
NCI-H650	0.496	0.352	0.478	0.231	0.146	1.12	0.995	0.773	0.541	0.368	0.905	0.736	0.623	0.307	0.304	0.84	0.875	1.02	0.667	0.323
NCI-H647	0.81	0.416	0.308	0.152	0.114	1.18	0.941	0.61	0.405	0.229	0.46	0.329	0.282	0.16	0.149	0.397	0.338	0.391	0.157	0.1
SW 1573	0.791	0.452	0.773	0.21	0.199	0.86	0.645	0.803	0.516	0.251	0.504	0.438	0.38	0.205	0.181	–	–	–	–	–
COR-L23	0.505	0.395	0.326	0.169	0.177	1.24	0.893	0.822	0.353	0.233	0.95	0.478	0.35	0.16	0.17	–	–	–	–	–
SK-LU-1	0.745	0.701	0.605	0.393	0.292	0.784	0.627	0.427	0.258	0.212	0.525	0.395	0.327	0.28	0.298	–	–	–	–	–
NCI-H1650	0.729	0.436	0.521	0.265	0.236	0.998	1.02	0.886	0.778	0.449	0.551	0.575	0.479	0.393	0.36	–	–	–	–	–
UMC-11	0.453	0.282	0.258	0.233	0.21	1	0.8	0.555	0.292	0.297	0.905	0.604	0.503	0.272	0.254	–	–	–	–	–
SK-MES-1	1.06	0.958	0.962	0.427	0.314	0.849	0.819	0.81	0.408	0.329	0.311	0.355	0.299	0.181	0.236	–	–	–	–	–
NCI-H2009	0.816	0.798	0.732	0.458	0.395	1.27	1.24	1.13	0.912	0.367	0.762	0.441	0.561	0.343	0.333	–	–	–	–	–
NCI-H2023	0.65	0.405	0.335	0.14	0.115	0.787	0.817	0.654	0.26	0.126	0.215	0.195	0.137	0.12	0.116	–	–	–	–	–
COR-L 105	0.865	0.766	0.805	0.516	0.421	1.55	1.03	1.31	0.756	0.476	0.488	0.31	0.388	0.326	0.35	–	–	–	–	–
NCI-H1563	–	–	–	–	–	0.913	0.723	0.725	0.635	0.645	0.651	0.614	0.65	0.61	0.638	–	–	–	–	–
EBC-1	–	–	–	–	–	0.102	0.126	0.116	0.114	0.127	0.303	0.266	0.206	0.197	0.19	–	–	–	–	–
Calu-6	–	–	–	–	–	0.878	0.839	0.691	0.439	0.346	0.826	0.737	0.531	0.4	0.366	–	–	–	–	–
HCC-44	1.12	1.22	1.07	0.735	0.803	–	–	–	–	–	0.447	0.396	0.376	0.267	0.347	1.03	1.01	0.972	0.992	0.925
